Measured values taken from PubChem BioAssay (NCI).
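A five-concentration, 48-hour dose response in 96-well plates underlies each endpoint, interpolated linearly between surrounding concentrations. The concentration for 50% growth inhibition is given as GI50. The concentration for full growth arrest is given as TGI.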

Experiments:
Assay in all cases: NCI anticancer screen, dose series, 48 h
OVCAR-4 ovarian = tested on: OVCAR-4 ovarian
A549 NSCLC = tested on: A549 NSCLC
HCT-116 colon = tested on: HCT-116 colon
MOLT-4 leukemia = tested on: MOLT-4 leukemia
SW-620 colon = tested on: SW-620 colon
RPMI-8226 leukemia = tested on: RPMI-8226 leukemia
HOP-92 NSCLC = tested on: HOP-92 NSCLC
UO-31 renal = tested on: UO-31 renal
HL-60(TB) leukemia = tested on: HL-60(TB) leukemia
M14 melanoma = tested on: M14 melanoma

SMILES	TGI (OVCAR-4 ovarian)	TGI (A549 NSCLC)	TGI (HCT-116 colon)	TGI (MOLT-4 leukemia)	TGI (SW-620 colon)	TGI (RPMI-8226 leukemia)	TGI (HOP-92 NSCLC)	TGI (UO-31 renal)	TGI (HL-60(TB) leukemia)	TGI (M14 melanoma)	GI50 (OVCAR-4 ovarian)	GI50 (HCT-116 colon)	GI50 (MOLT-4 leukemia)	GI50 (SW-620 colon)	GI50 (RPMI-8226 leukemia)	GI50 (HOP-92 NSCLC)	GI50 (M14 melanoma)	GI50 (UO-31 renal)	GI50 (A549 NSCLC)	GI50 (HL-60(TB) leukemia)
COc1ccc(N=Cc2cc(OC)c(OC)c(OC)c2)cc1	> 100 µM	> 100 µM	> 100 µM	> 100 µM	30 µM	59.6 µM	> 100 µM	> 100 µM	–	–	–	–	–	–	–	–	–	–	–	–
CCCCCCCCCCCCCCC1OC(=O)c2ccccc21 (configuration not stated)	> 100 µM	> 100 µM	> 100 µM	> 100 µM	> 100 µM	> 100 µM	–	> 100 µM	40.7 µM	> 100 µM	–	–	–	–	–	–	–	–	–	–
ClCc1ccccc1CSc1ncnc2nc[nH]c12	> 60 µM	–	> 60 µM	> 60 µM	> 60 µM	> 60 µM	> 60 µM	> 60 µM	–	> 60 µM	> 60 µM	> 60 µM	> 60 µM	> 60 µM	> 60 µM	> 60 µM	> 60 µM	> 60 µM	–	–
COc1nc2c(cc1S(=O)(=O)c1ccccc1)CCc1c-2cnn1-c1ccccc1Cl	> 100 µM	> 100 µM	> 100 µM	> 100 µM	> 100 µM	> 100 µM	–	> 100 µM	> 100 µM	> 100 µM	7.3 µM	5.31 µM	4.76 µM	> 100 µM	5.39 µM	–	> 100 µM	3.13 µM	4.97 µM	4.98 µM
O=C(Cc1ccc(/C=C/C(=O)c2ncc[nH]2)cc1)Nc1ccc(Cl)cc1	> 25 µM	> 25 µM	3.41 µM	24.2 µM	> 25 µM	3.92 µM	20.9 µM	5.11 µM	21.8 µM	–	4.11 µM	0.848 µM	1.8 µM	1.43 µM	0.857 µM	5.74 µM	–	1.69 µM	6.9 µM	3.8 µM
C[C@]12CCC(=O)C=C1CC[C@@H]1C2CC[C@]2(C)NC(=O)C(C#N)CC12 (some centres not stated)	> 100 µM	> 100 µM	> 100 µM	> 100 µM	> 100 µM	> 100 µM	–	> 100 µM	> 100 µM	> 100 µM	–	–	–	–	–	–	–	–	–	–
O=c1[nH]c(=O)n(C2CC(O)C(CO)O2)cc1C#Cc1c(F)c(F)c(F)c(F)c1F (configuration not stated)	> 100 µM	> 100 µM	> 100 µM	> 100 µM	> 100 µM	> 100 µM	–	> 100 µM	–	> 100 µM	–	–	–	–	–	–	–	–	–	–
COc1cc([C@@H]2c3cc4c(cc3[C@@H](NC(=O)c3cccc([N+](=O)[O-])c3)C3COC(=O)[C@@H]32)OCO4)cc(OC)c1O (some centres not stated)	> 89.5 µM	1.72 µM	> 34.8 µM	> 100 µM	24.3 µM	> 22.1 µM	22.8 µM	12.2 µM	–	> 19.8 µM	–	–	–	–	–	–	–	–	–	–
O=C(O)/C=C/C(=O)Nc1ncn[nH]1	> 100 µM	> 100 µM	> 100 µM	> 100 µM	> 100 µM	> 100 µM	> 100 µM	> 100 µM	–	> 100 µM	–	–	–	–	–	–	–	–	–	–
O=C1CCC(NC(=O)c2ccccc2)C(=O)N1 (configuration not stated)	> 100 µM	> 100 µM	> 100 µM	16.9 µM	> 100 µM	> 100 µM	> 100 µM	> 100 µM	–	> 100 µM	–	–	–	–	–	–	–	–	–	–
COc1ccc(/C=C(/C(=O)O)c2cc(OC)c(OC)c(OC)c2)cc1	> 100 µM	> 100 µM	> 100 µM	> 100 µM	> 100 µM	> 100 µM	> 100 µM	> 100 µM	–	99.1 µM	–	–	–	–	–	–	–	–	–	–
c1ccc(-c2nnc(-c3nn(-c4ccccc4)c4nc5ccccc5nc34)o2)cc1	> 100 µM	> 100 µM	> 100 µM	71.6 µM	> 100 µM	> 100 µM	–	> 100 µM	85.2 µM	> 100 µM	–	–	–	–	–	–	–	–	–	–
CC1CCC[P+](Cc2ccccc2)(c2ccccc2)CC1 (configuration not stated)	90.4 µM	> 100 µM	–	> 100 µM	> 100 µM	51.4 µM	–	> 100 µM	37.8 µM	> 100 µM	–	–	–	–	–	–	–	–	–	–
O=C1CSC(N2CCN(c3cccc(Cl)c3)CC2)=N1	> 100 µM	> 100 µM	> 100 µM	> 100 µM	> 100 µM	> 100 µM	–	> 100 µM	> 100 µM	> 100 µM	> 100 µM	> 100 µM	> 100 µM	> 100 µM	> 100 µM	–	> 100 µM	> 100 µM	> 100 µM	> 100 µM
COC(=O)C(CC(=O)c1cc2c(cc1I)OCO2)Cc1cc(OC)c(OC)c(OC)c1I (configuration not stated)	–	> 100 µM	> 100 µM	> 100 µM	> 100 µM	> 100 µM	> 100 µM	–	> 100 µM	–	–	–	–	–	–	–	–	–	–	–
O=C1c2ccccc2-c2c1c1cc3c(cc1c(=O)n2CCCCl)OCO3	> 100 µM	> 100 µM	90.1 µM	> 100 µM	> 100 µM	> 100 µM	> 100 µM	> 100 µM	–	> 100 µM	> 100 µM	17.7 µM	35 µM	94.5 µM	78.6 µM	41.1 µM	65.3 µM	> 100 µM	36.3 µM	–
